Experimental data as given in patent US8772500B2, “TRPV3 modulators” (AbbVie Inc., priority 2011, dated 2014).
Where two headings read alike, the source gives them in different places.

What was measured:
[1] = In vitro rat microsomal stability assay; format: in vitro ADME, rat (Sprague-Dawley)
Procedure, shortened: (§1)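 Liver microsomes: Sprague-Dawley rat for rat assay, human for human assay; 37 °C; NADPH cofactor, also spiked into time-zero plates.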

[2] = In vitro human microsomal stability assay; format: in vitro ADME
Procedure, shortened: as §1

[3] = biological target: T1, human TRPV3 (Homo sapiens, UniProt Q8NET8); assay: In vitro antagonism of recombinant human TRPV3 activation (FLIPR Tetra calcium assay, 2-APB as agonist); format: cell-based; settings: HEK293 cells stably expressing human TRPV3, 2-APB 80 μM
T1 construct: expressed in transfected cells
T1 sequence (Q8NET8 1-790): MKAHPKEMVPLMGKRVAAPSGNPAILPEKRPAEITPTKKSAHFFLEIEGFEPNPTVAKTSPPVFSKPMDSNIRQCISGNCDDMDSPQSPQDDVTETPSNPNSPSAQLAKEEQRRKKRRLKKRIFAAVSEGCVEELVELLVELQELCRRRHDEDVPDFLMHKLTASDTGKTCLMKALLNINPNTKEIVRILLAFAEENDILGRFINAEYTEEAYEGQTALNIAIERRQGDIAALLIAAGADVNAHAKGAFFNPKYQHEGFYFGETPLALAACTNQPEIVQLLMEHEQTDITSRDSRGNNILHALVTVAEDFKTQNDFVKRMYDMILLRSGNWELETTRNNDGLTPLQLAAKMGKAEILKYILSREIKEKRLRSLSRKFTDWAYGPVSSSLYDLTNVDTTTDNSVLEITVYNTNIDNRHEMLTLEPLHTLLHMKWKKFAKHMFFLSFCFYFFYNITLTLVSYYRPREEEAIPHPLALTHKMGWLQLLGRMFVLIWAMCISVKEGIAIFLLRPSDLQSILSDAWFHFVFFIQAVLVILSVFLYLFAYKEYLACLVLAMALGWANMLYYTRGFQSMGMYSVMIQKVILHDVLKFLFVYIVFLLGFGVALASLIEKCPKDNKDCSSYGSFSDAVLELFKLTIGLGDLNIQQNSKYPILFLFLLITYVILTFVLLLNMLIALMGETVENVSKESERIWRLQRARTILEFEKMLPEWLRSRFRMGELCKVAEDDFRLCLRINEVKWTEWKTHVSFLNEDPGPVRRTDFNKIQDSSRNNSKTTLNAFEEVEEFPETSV
Procedure, shortened: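 Readout is FLIPR fluorescence, max minus min as percent of uninhibited 2-APB response, giving IC50 (usually mean of ≥2 runs). Stable human TRPV3 HEK293 cells, Calcium-4 dye-loaded, got test compound then, three minutes later, 80 μM 2-APB (EC80); run length 10 min.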

[4] = 0.5 μM substrate, 0.25 mg/mL microsomal protein, pH 7.4, 37° C., NADPH, 30 minutes
[5] = range class, read-out: IC50 (reported range)
[6] = Sprague-Dawley, rat, 0.5 h, 0.5 μM, pH 7.4

Row | Compound | RAT MICROSOMAL STABILITY (% REMAINING AFTER 30 MINUTES) [1, 4] | HUMAN MICROSOMAL STABILITY (% REMAINING AFTER 30 MINUTES) [2, 4] | IC50 ([3]; mostly average of n≧2, read-out: IC50 (actual measured value, shown parenthetically)) | IC50 [3, 5] | RAT MICROSOMAL STABILITY (% REMAINING AFTER 30 MINUTES) [1, 6] | HUMAN MICROSOMAL STABILITY (% REMAINING AFTER 30 MINUTES) ([2]; human, 0.5 h, 0.5 μM, pH 7.4)
1 | pyridin-2-yl{1-[5-(trifluoromethyl)pyridin-3-yl]cyclobutyl}methanol [Example 110] | 2.8% | 8.0% | 0.5 µM | 0.05 to 0.5 µM |  | 
2 | OC(c1ccccn1)C1(c2ccc(OC(F)(F)F)cc2)CCCO1 (stereo not drawn) [Example 94, (anti)-pyridin-2-yl{2-[4-(trifluoromethoxy)phenyl]tetrahydrofuran-2-yl}-methanol] |  |  |  | 0.05 to 0.5 µM | 3.8% | 55%
3 | OC(c1ccccn1)C1(c2nc3ccccc3o2)CCC1 (stereo not shown) [Example 271, [1-(1,3-benzoxazol-2-yl)cyclobutyl](pyridin-2-yl)methanol] |  |  |  | 1.1 to 5 µM | 8.6% | 62%
4 | OC1CC(c2ccc(OC(F)(F)F)cc2)(C(O)c2ccccn2)C1 [Example 132, (trans)-3-[(S)-hydroxy(pyridin-2-yl)methyl]-3-[4-(trifluoromethoxy)phenyl]-cyclobutanol] |  |  |  | 5.1 to 20 µM | 72% | 81%
5 | CN1CCC(c2cccc(OC(F)(F)F)c2)(C(O)c2ccccn2)CC1 (stereo not shown) [Example 146, {1-methyl-4-[3-(trifluoromethoxy)phenyl]piperidin-4-yl}(pyridin-2-yl)-methanol] | 8.9% | 84% |  | 5.1 to 20 µM |  | 
6 | OC(c1ccccn1)C1(c2ccc(Cl)c(Cl)c2)CCCO1 (stereo not drawn) [Example 99, (syn)-[2-(3,4-dichlorophenyl)tetrahydrofuran-2-yl](pyridin-2-yl)methanol] |  |  |  | 1.1 to 5 µM | 0.17% | 30%
7 | Cn1c(C2(C(O)c3ccccn3)CCC2)nc2ccccc21 (stereo not shown) [Example 275, [1-(1-methyl-1H-benzimidazol-2-yl)cyclobutyl](pyridin-2-yl)methanol] |  |  |  | 5.1 to 20 µM | 5.7% | 67%
8 | OC(c1ccccn1)C1(c2cccc(OC(F)(F)F)c2)CC(F)(F)C1 (stereo not shown) [Example 114, {3,3-difluoro-1-[3-(trifluoromethoxy)phenyl]cyclobutyl}(pyridin-2-yl)-methanol] |  |  |  | 0.05 to 0.5 µM | 11% | 6.9%
9 | OC(c1ccccn1)C1(c2ccc(F)c(C(F)(F)F)c2)CC(F)(F)C1 (stereo not shown) [Example 139, {3,3-difluoro-1-[4-fluoro-3-(trifluoromethyl)phenyl]cyclobutyl}(pyridin-2-yl)methanol] |  |  |  | 0.501 to 1 µM | 26% | 41%
10 | OC(c1ccccn1)C1(C2CCOc3ccccc32)CCC1 (stereo not shown) [Example 57, [1-(3,4-dihydro-2H-chromen-4-yl)cyclobutyl](pyridin-2-yl)methanol] |  |  |  | 5.1 to 20 µM | 10% | 16%
11 | OC(c1ccccn1)C1(c2ccc(OC(F)(F)F)cc2)CCC1 (stereo not shown) [Example 12, pyridin-2-yl{1-[4-(trifluoromethoxy)phenyl]cyclobutyl}methanol] |  |  |  | 0.05 to 0.5 µM | 11% | 24%
12 | N[C@H]1CCC[C@H]1[C@@H](O)C1(c2ccc(OC(F)(F)F)cc2)CCC1 [Example 229, (R)-[(1R,2S)-2-aminocyclopentyl]{1-[4-(trifluoromethoxy)phenyl]-cyclobutyl}methanol] |  |  |  | 1.1 to 5 µM | 80% | >85%
